Earlier results as cited in patent US20120301532A1, “COMPOSITIONS AND METHODS FOR TREATING MATERIALS WITH INSECTICIDES AND POTENTIATING AGENTS” (ALLERGY TECHNOLOGIES, LLC, priority 2011, published 2012).

Test system: bed bugs
Conditions: bed bug attractants, background statement

In the case of `O=C=O` [CO2], the effective attractant range is given as no less than 86 centimeters.
